Test results reported in patent publication US9132140B2, “Boronic acid derivatives and therapeutic uses thereof” (Rempex Pharmaceuticals, Inc., priority 2013, dated 2015).

Columns and labels:
ECL1082 (VIM-1) = assay type: cell-based, Enterobacter cloacae
Text: (§1) Several strains simultaneously expressing both class A and class B carbapenemases, which were constructed using conjugation, were also included in the panel.

ECLM1015 (NDM, KPC) = assay type: cell-based, Enterobacter cloacae
Text: as §1

ECLM1018 (VIM, KPC) = assay type: cell-based, Enterobacter cloacae
Text: as §1

ECL1026 (KPC) = assay type: cell-based, Enterobacter cloacae
Text: as §1

[1] = tested on: ECL1057 (NDM-1, TEM-1, CTX-M-15); assay type: cell-based, Enterobacter cloacae
Text: as §1

ECL1055 (KPC) = assay type: cell-based, Enterobacter cloacae
Text: as §1

ECLM1014 (NDM, KPC) = assay type: cell-based, Enterobacter cloacae
Text: as §1

ECLM1017 (VIM, KPC) = assay type: cell-based, Enterobacter cloacae
Text: as §1

ECLM1016 (NDM, KPC) = assay type: cell-based, Enterobacter cloacae
Text: as §1

ECLM1013 (NDM, KPC) = assay type: cell-based, Enterobacter cloacae
Text: as §1

ECL1036 (KPC) = assay type: cell-based, Enterobacter cloacae
Text: as §1

ECLM1019 (VIM, KPC) = assay type: cell-based, Enterobacter cloacae
Text: as §1

ECL1045 (VIM-1) = assay type: cell-based, Enterobacter cloacae
Text: as §1

KPM1109 (NDM, KPC) = assay type: cell-based, Klebsiella pneumoniae
Text: as §1

KPM1111 (NDM, KPC) = assay type: cell-based, Klebsiella pneumoniae
Text: as §1

[2] = tested on: KP1084 (KPC-3, SHV-11, TEM-1); assay type: cell-based, Klebsiella pneumoniae
Text: as §1

## Nn1cnnc1S[C@H]1Cc2cccc(C(=O)O)c2OB1O [Compound 14, (R)-3-(4-amino-4H-1,2,4-triazol-3-ylthio)-2-hydroxy-3,4-dihydro-2H-benzo[e][1,2]oxaborinine-8-carboxylic acid]
ECL1082 (VIM-1)
  Imipenem + 14 MIC: X (key: X: MIC of less than 1 μg/mL; Y: MIC of 1 μg/mL to 10 μg/mL; Z: MIC of greater than 10 μg/mL)
  Meropenem + 14 MIC: X (key: X: MIC of less than 1 μg/mL; Y: MIC of 1 μg/mL to 10 μg/mL; Z: MIC of greater than 10 μg/mL)
ECLM1015 (NDM, KPC)
  Imipenem + 14 MIC: X (key: X: MIC of less than 1 μg/mL; Y: MIC of 1 μg/mL to 10 μg/mL; Z: MIC of greater than 10 μg/mL)
  Meropenem + 14 MIC: X (key: X: MIC of less than 1 μg/mL; Y: MIC of 1 μg/mL to 10 μg/mL; Z: MIC of greater than 10 μg/mL)
ECLM1018 (VIM, KPC)
  Imipenem + 14 MIC: Y (key: X: MIC of less than 1 μg/mL; Y: MIC of 1 μg/mL to 10 μg/mL; Z: MIC of greater than 10 μg/mL)
  Meropenem + 14 MIC: X (key: X: MIC of less than 1 μg/mL; Y: MIC of 1 μg/mL to 10 μg/mL; Z: MIC of greater than 10 μg/mL)
ECL1026 (KPC)
  Imipenem + 14 MIC: X (key: X: MIC of less than 1 μg/mL; Y: MIC of 1 μg/mL to 10 μg/mL; Z: MIC of greater than 10 μg/mL)
  Meropenem + 14 MIC: X (key: X: MIC of less than 1 μg/mL; Y: MIC of 1 μg/mL to 10 μg/mL; Z: MIC of greater than 10 μg/mL)
[1]
  Imipenem + 14 MIC: Y (key: X: MIC of less than 1 μg/mL; Y: MIC of 1 μg/mL to 10 μg/mL; Z: MIC of greater than 10 μg/mL)
  Meropenem + 14 MIC: Z (key: X: MIC of less than 1 μg/mL; Y: MIC of 1 μg/mL to 10 μg/mL; Z: MIC of greater than 10 μg/mL)
ECL1055 (KPC)
  Imipenem + 14 MIC: X (key: X: MIC of less than 1 μg/mL; Y: MIC of 1 μg/mL to 10 μg/mL; Z: MIC of greater than 10 μg/mL)
  Meropenem + 14 MIC: X (key: X: MIC of less than 1 μg/mL; Y: MIC of 1 μg/mL to 10 μg/mL; Z: MIC of greater than 10 μg/mL)
ECLM1014 (NDM, KPC)
  Imipenem + 14 MIC: X (key: X: MIC of less than 1 μg/mL; Y: MIC of 1 μg/mL to 10 μg/mL; Z: MIC of greater than 10 μg/mL)
  Meropenem + 14 MIC: X (key: X: MIC of less than 1 μg/mL; Y: MIC of 1 μg/mL to 10 μg/mL; Z: MIC of greater than 10 μg/mL)
ECLM1017 (VIM, KPC)
  Imipenem + 14 MIC: X (key: X: MIC of less than 1 μg/mL; Y: MIC of 1 μg/mL to 10 μg/mL; Z: MIC of greater than 10 μg/mL)
  Meropenem + 14 MIC: X (key: X: MIC of less than 1 μg/mL; Y: MIC of 1 μg/mL to 10 μg/mL; Z: MIC of greater than 10 μg/mL)
ECLM1016 (NDM, KPC)
  Imipenem + 14 MIC: X (key: X: MIC of less than 1 μg/mL; Y: MIC of 1 μg/mL to 10 μg/mL; Z: MIC of greater than 10 μg/mL)
  Meropenem + 14 MIC: X (key: X: MIC of less than 1 μg/mL; Y: MIC of 1 μg/mL to 10 μg/mL; Z: MIC of greater than 10 μg/mL)
ECLM1013 (NDM, KPC)
  Imipenem + 14 MIC: X (key: X: MIC of less than 1 μg/mL; Y: MIC of 1 μg/mL to 10 μg/mL; Z: MIC of greater than 10 μg/mL)
  Meropenem + 14 MIC: X (key: X: MIC of less than 1 μg/mL; Y: MIC of 1 μg/mL to 10 μg/mL; Z: MIC of greater than 10 μg/mL)
ECL1036 (KPC)
  Imipenem + 14 MIC: X (key: X: MIC of less than 1 μg/mL; Y: MIC of 1 μg/mL to 10 μg/mL; Z: MIC of greater than 10 μg/mL)
  Meropenem + 14 MIC: X (key: X: MIC of less than 1 μg/mL; Y: MIC of 1 μg/mL to 10 μg/mL; Z: MIC of greater than 10 μg/mL)
ECLM1019 (VIM, KPC)
  Imipenem + 14 MIC: X (key: X: MIC of less than 1 μg/mL; Y: MIC of 1 μg/mL to 10 μg/mL; Z: MIC of greater than 10 μg/mL)
  Meropenem + 14 MIC: X (key: X: MIC of less than 1 μg/mL; Y: MIC of 1 μg/mL to 10 μg/mL; Z: MIC of greater than 10 μg/mL)
ECL1045 (VIM-1)
  Imipenem + 14 MIC: X (key: X: MIC of less than 1 μg/mL; Y: MIC of 1 μg/mL to 10 μg/mL; Z: MIC of greater than 10 μg/mL)
  Meropenem + 14 MIC: X (key: X: MIC of less than 1 μg/mL; Y: MIC of 1 μg/mL to 10 μg/mL; Z: MIC of greater than 10 μg/mL)
KPM1109 (NDM, KPC)
  Imipenem + 14 MIC: X (key: X: MIC of less than 1 μg/mL; Y: MIC of 1 μg/mL to 10 μg/mL; Z: MIC of greater than 10 μg/mL)
  Meropenem + 14 MIC: Y (key: X: MIC of less than 1 μg/mL; Y: MIC of 1 μg/mL to 10 μg/mL; Z: MIC of greater than 10 μg/mL)
KPM1111 (NDM, KPC)
  Imipenem + 14 MIC: X (key: X: MIC of less than 1 μg/mL; Y: MIC of 1 μg/mL to 10 μg/mL; Z: MIC of greater than 10 μg/mL)
  Meropenem + 14 MIC: X (key: X: MIC of less than 1 μg/mL; Y: MIC of 1 μg/mL to 10 μg/mL; Z: MIC of greater than 10 μg/mL)
[2]
  Imipenem + 14 MIC: Y (key: X: MIC of less than 1 μg/mL; Y: MIC of 1 μg/mL to 10 μg/mL; Z: MIC of greater than 10 μg/mL)
  Meropenem + 14 MIC: Y (key: X: MIC of less than 1 μg/mL; Y: MIC of 1 μg/mL to 10 μg/mL; Z: MIC of greater than 10 μg/mL)
